Source: patent US12624034B2, “Non-covalent modifiers of AKT1 and uses thereof” (Terremoto Biosciences, Inc., priority 2023, dated 2026)
Where two headings read alike, the source gives them in different places.

Tests used:
[1] = target: T1, AKT1 WT (Homo sapiens, UniProt P31749); experiment: Live cell AKT1 WT target engagement by NanoBRET competitive probe displacement in HEK293 cells; assay type: binding; conditions: 2 h at 37° C., read-out: AKT1 WT IC50
T1 construct: expressed in transfected cells; host or cells: HEK293
Description: (§1) Determining live cell AKT1 E17K, AKT1 WT, and AKT2 target engagement by NanoBRET competitive probe displacement. […] Briefly, HEK293 cells were transfected with plasmids encoding kinase-NanoLuciferase fusion proteins overnight. Cells were then treated with serial dilutions of compound and an ˜EC50 concentration of fluorescently-tagged ATP-competitive tracer (Promega). After incubation for 2 h at 37° C., luciferase substrate and extracellular luciferase inhibitor were added to all wells, and luminescent intensity at 460 nm and 600 nm were measured on a multimode plate-reader. The ratio of E600/E460 was calculated to give the tracer engagement signal (BRET). IC50 values were calculated by fitting BRET values to a log(inhibitor) vs. response Hill equation.

[2] = target: T2, AKT2 (Homo sapiens, UniProt P31751); experiment: Live cell AKT2 target engagement by NanoBRET competitive probe displacement in HEK293 cells; assay type: binding; conditions: 2 h at 37° C., read-out: AKT2 IC50
T2 construct: expressed in transfected cells; host or cells: HEK293
Description: as §1

[3] = NanoBRET live cell target engagement, HEK293 cells
[4] = NanoBRET competitive probe displacement, live HEK293 cells

T2 sequence (P31751 whole entry): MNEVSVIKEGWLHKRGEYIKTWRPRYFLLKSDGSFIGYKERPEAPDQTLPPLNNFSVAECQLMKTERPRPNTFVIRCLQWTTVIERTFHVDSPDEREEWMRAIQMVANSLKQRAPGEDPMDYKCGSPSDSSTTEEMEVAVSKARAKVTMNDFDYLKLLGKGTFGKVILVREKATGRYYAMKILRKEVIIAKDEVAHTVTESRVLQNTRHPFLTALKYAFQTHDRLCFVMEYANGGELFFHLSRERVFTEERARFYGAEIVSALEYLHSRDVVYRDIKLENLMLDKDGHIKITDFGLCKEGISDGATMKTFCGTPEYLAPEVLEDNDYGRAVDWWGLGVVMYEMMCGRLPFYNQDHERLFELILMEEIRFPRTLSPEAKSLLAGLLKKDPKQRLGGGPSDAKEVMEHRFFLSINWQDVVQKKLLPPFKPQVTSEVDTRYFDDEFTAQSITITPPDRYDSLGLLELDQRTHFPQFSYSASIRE
T1 sequence (P31749 whole entry): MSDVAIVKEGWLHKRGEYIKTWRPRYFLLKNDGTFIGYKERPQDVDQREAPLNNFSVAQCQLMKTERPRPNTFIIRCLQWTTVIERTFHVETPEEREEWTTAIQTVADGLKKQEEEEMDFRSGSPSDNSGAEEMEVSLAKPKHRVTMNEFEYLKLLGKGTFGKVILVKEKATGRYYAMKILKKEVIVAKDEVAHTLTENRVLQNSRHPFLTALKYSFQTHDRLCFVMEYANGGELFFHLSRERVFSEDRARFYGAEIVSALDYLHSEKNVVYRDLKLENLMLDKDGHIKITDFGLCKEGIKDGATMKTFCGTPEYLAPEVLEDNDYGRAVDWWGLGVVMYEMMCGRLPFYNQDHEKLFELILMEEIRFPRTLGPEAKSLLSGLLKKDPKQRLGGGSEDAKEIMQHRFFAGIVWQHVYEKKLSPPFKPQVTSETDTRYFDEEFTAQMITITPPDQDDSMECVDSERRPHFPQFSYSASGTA

SMILES | IC50 [1, 3] [nM] | IC50 [2, 3] [nM] | IC50 [1, 4] [nM] | IC50 [2, 4] [nM]
Nc1ncccc1-c1nc2ccc(-n3cccn3)nc2n1-c1ccc2c(c1)CC[C@@H]2NCc1cccnc1 [Compound 141] | 52.6 | 734 |  | 
Cn1c(=O)[nH]c2ccc(C(=O)N[C@H]3CCc4cc(-n5c(-c6cccnc6N)nc6ccc(-n7cccn7)nc65)ccc43)cc21 [Compound 230] | 13.6 | 68.2 |  | 
Cn1cc(Cc2nncn2[C@H]2CCc3cc(-n4c(-c5cccnc5N)nc5ccc(-n6cccn6)nc54)ccc32)cn1 [Compound 228] | 586 | 2030 |  | 
Nc1ncccc1-c1nc2ccc(-n3cccn3)nc2n1-c1ccc2c(c1)CC[C@@H]2NC(=O)c1ccnc(OC(F)F)c1 [Compound 202] | 5.59 | 29.4 |  | 
Nc1ncccc1-c1nc2ccc(-n3cccn3)nc2n1-c1ccc2c(c1)CC(F)[C@@H]2NC1CN(c2ccccn2)C1 (stereo partly drawn) [Compound 208] | 32.4 | 1030 |  | 
Cc1cn(C)nc1C(=O)N[C@H]1CCc2cc(-n3c(-c4cccnc4N)nc4ccc(-n5cccn5)nc43)ccc21 [Compound 172] | 203 | 2390 |  | 
Cc1cnc2ccc(C(=O)N[C@H]3CCc4cc(-n5c(-c6cccnc6N)nc6ccc(-n7cccn7)nc65)ccc43)cn12 [Compound 71] | 4.63 | 69.7 |  | 
Nc1ncccc1-c1nc2ccc(-n3cccn3)nc2n1-c1ccc2c(c1)CC[C@@H]2NC(=O)c1ccc2ccnn2c1 [Compound 290] | 3.83 | 18.9 |  | 
Cc1ccc(CN[C@H]2CCc3cc(-n4c(-c5cccnc5N)nc5ccc(-n6cccn6)nc54)ccc32)cn1 [Compound 70] | 49.4 | 576 |  | 
COc1ncc(C(=O)N[C@H]2CCc3cc(-n4c(-c5cccnc5N)nc5ccc(-n6cccn6)nc54)ccc32)cc1F [Compound 162] | 9.12 | 37.8 |  | 
Nc1ncccc1-c1nc2ccc(-c3ccn(C(F)F)n3)nc2n1-c1ccc2c(c1)CC[C@@H]2NC(=O)c1ccc(C(F)F)nc1 [Compound 74] | 4.94 | 34.8 |  | 
Nc1ncccc1-c1nc2ccc(-n3cccn3)nc2n1-c1ccc2c(c1)CC[C@@H]2NC(=O)c1ccnc2c1OC(F)(F)O2 [Compound 317] | 131 | 1730 |  | 
COc1cc(-n2cccn2)nc2c1nc(-c1cccnc1N)n2-c1ccc2c(c1)CC[C@@H]2NC(=O)c1cccnc1C [Compound 124] | 13.9 | 54.8 |  | 
Nc1ncccc1-c1nc2ccc(-n3nccn3)nc2n1-c1ccc2c(c1)CC[C@@H]2NC(=O)c1cnc(C(F)F)c(F)c1 [Compound 121] | 36.6 | 1590 |  | 
Cc1ccc(C(=O)N[C@H]2CCc3cc(-n4c(-c5cccnc5N)nc5ccc(-n6cccn6)nc54)ccc32)c(C)n1 [Compound 69] | 10.9 | 71.6 |  | 
Nc1ncccc1-c1nc2ccc(-n3cccn3)nc2n1-c1ccc2c(c1)CC[C@@H]2NC(=O)c1ccc2[nH]c(=O)sc2c1 [Compound 233] | 12.3 | 24.2 |  | 
Cc1ncccc1C(=O)N[C@H]1CCc2cc(-n3c(-c4cccnc4N)nc4c(F)cc(-n5cccn5)nc43)ccc21 [Compound 212] | 57.8 | 158 |  | 
Nc1ncccc1-c1nc2ccc(-n3cccn3)nc2n1-c1ccc2c(c1)CC[C@@H]2NC(=O)c1ccn2nccc2n1 [Compound 306] | 34.5 | 132 |  | 
Cc1cc(C(=O)N[C@H]2CCc3cc(-n4c(-c5cccnc5N)nc5ccc(-n6nccn6)nc54)ccc32)cnc1C(F)F [Compound 102] | 31.5 | 836 |  | 
Cc1ccc(CN(C)[C@H]2CCc3cc(-n4c(-c5cccnc5N)nc5ccc(-n6cccn6)nc54)ccc32)cn1 [Compound 168] | 41.1 | 1010 |  | 
Nc1ncccc1-c1nc2c(C(F)F)cc(-n3cccn3)nc2n1-c1ccc2c(c1)CC[C@@H]2NC(=O)c1ccc(C(F)F)nc1 [Compound 177, (S)—N-(5-(2-(2-aminopyridin-3-yl)-7-(difluoromethyl)-5-(1H-pyrazol-1-yl)-3H-imidazo[4,5-b]pyridin-3-yl)-2,3-dihydro-1H-inden-1-yl)-6-(difluoromethyl)nicotinamide] | 10.6 | 47.2 |  | 
Nc1ncccc1-c1nc2ccc(-n3cccn3)nc2n1-c1ccc2c(c1)CC[C@@H]2NC(=O)c1cccnc1CO [Compound 152, (S)—N-(5-(2-(2-aminopyridin-3-yl)-5-(1H-pyrazol-1-yl)-3H-imidazo[4,5-b]pyridin-3-yl)-2,3-dihydro-1H-inden-1-yl)-2-(hydroxymethyl)nicotinamide] | 61.7 | 984 |  | 
Cc1ncccc1C(=O)N[C@H]1CCc2cc(-n3c(-c4cccnc4N)nc4c(C#N)cc(-n5cccn5)nc43)ccc21 [Compound 125] | 13.3 | 201 |  | 
Nc1ncccc1-c1nc2ccc(-n3cccn3)nc2n1-c1ccc2c(c1)CC[C@@H]2n1cc(C2CNC2)nn1 [Compound 250] | > 1000 | > 10000 |  | 
Cc1ncc(C(=O)N[C@H]2CCc3cc(-n4c(-c5cccnc5N)nc5ccc(-n6cccn6)nc54)ccc32)s1 [Compound 120] | 5.61 | 103 |  | 
CNS(=O)(=O)c1cccc(C(=O)N[C@H]2CCc3cc(-n4c(-c5cccnc5N)nc5ccc(-n6cccn6)nc54)ccc32)c1 [Compound 239] | 117 | 1090 |  | 

Continued, values first:

IC50 [1, 3] [nM] | IC50 [2, 3] [nM] | IC50 [1, 4] [nM] | IC50 [2, 4] [nM] | SMILES
8.16 | 21.4 |  |  | COc1cc(F)cc(C(=O)N[C@H]2CCc3cc(-n4c(-c5cccnc5N)nc5ccc(-n6cccn6)nc54)ccc32)c1 [Compound 334]
 |  | 1.43 | 34 | Cc1cc(C(=O)N[C@H]2CCc3cc(-n4c(-c5cccnc5N)nc5ccc(-n6cccn6)nc54)ccc32)cc(C(F)(F)F)c1O [Compound 416]
 |  | 23.5 | 499 | Nc1ncccc1-c1nc2ccc(-n3cccn3)nc2n1-c1ccc2c(c1)CC[C@@H]2NC1CCN(C(=O)C2CC2)CC1F (stereo partly drawn) [Compound 444]
 |  | 7.43 | 57.6 | COCc1cc(C(=O)N[C@H]2CCc3cc(-n4c(-c5cccnc5N)nc5ccc(-n6cccn6)nc54)ccc32)ccc1O [Compound 410, (S)—N-(5-(2-(2-aminopyridin-3-yl)-5-(1H-pyrazol-1-yl)-3H-imidazo[4,5-b]pyridin-3-yl)-2,3-dihydro-1H-inden-1-yl)-4-hydroxy-3-(methoxymethyl)benzamide]
 |  | 105 | > 10000 | Nc1ncccc1-c1nc2ccc(C#CC3CC3)nc2n1-c1ccc2c(c1)CC(F)[C@@H]2NC1CCN(C(=O)C2CC2)CC1 (stereo partly drawn) [Compound 521]
 |  | 170 | 4360 | Nc1ncccc1-c1nc2ccc(-n3cccn3)nc2n1-c1ccc2c(c1)CC[C@@H]2NC1CCN(C(=O)[C@@H]2C[C@@H]2F)CC1 [Compound 477]
25 | 1270 |  |  | Nc1ncccc1-c1nc2ccc(-n3cccn3)nc2n1-c1ccc2c(c1)CC[C@@H]2n1cc(C2CCO2)nn1 (stereo partly drawn) [Compound 353]
 |  | 188 | 2620 | Nc1ncccc1-c1nc2ccc(-n3cccn3)nc2n1-c1ccc2c(c1)CC[C@@H]2NC1CCN(C(=O)C2COC2)CC1 [Compound 423]
 |  | 27 | 1080 | Nc1ncccc1-c1nc2ccc(-n3cccn3)nc2n1-c1ccc2c(c1)CC[C@@H]2NC1CCc2cnccc2C1 (single isomer, unassigned) [Compound 463]
 |  | 102 | 2500 | Nc1ncccc1-c1nc2ccc(-n3cccn3)nc2n1-c1ccc2c(c1)CC[C@@H]2NC1CCc2nc(C(F)F)sc21 (stereo partly drawn) [Compound 601]
 |  | 20.4 | 903 | Nc1ncccc1-c1nc2ccc(C#CC3CC3)nc2n1-c1ccc2c(c1)CC[C@@H]2NC(=O)c1ccc(C(F)F)nc1 [Compound 406]
 |  | 9.86 | 274 | Nc1ncccc1-c1nc2ccc(-n3ccc(N4CCS(=O)(=O)CC4)n3)nc2n1-c1ccc2c(c1)CC[C@@H]2NC1CCN(C(=O)C2CC2)CC1 [Compound 565]
 |  | 19.5 | 1150 | N[C@H]1CCc2cc(-n3c(-c4ccccc4F)nc4ccc(-n5cccn5)nc43)ccc21 [Compound 527]
 |  | 11.3 | 455 | Nc1ncccc1-c1nc2ccc(-n3ccc(OC4COC4)n3)nc2n1-c1ccc2c(c1)CC[C@@H]2NC1CCN(C(=O)C2CC2)CC1 [Compound 567]
 |  | 78.5 | 1490 | Nc1ncccc1-c1nc2ccc(-n3cccn3)nc2n1-c1ccc2c(c1)CC[C@@H]2NC1CC2(CCN(c3ccccn3)C2)C1 (stereo partly drawn) [Compound 447, N-[(1S)-5-[2-(2-aminopyridin-3-yl)-5-(pyrazol-1-yl)imidazo[4,5-b]pyridin-3-yl]-2,3-dihydro-1H-inden-1-yl]-6-(pyridin-2-yl)-6-azaspiro[3.4]octan-2-amine]
 |  | 5.11 | 430 | Cc1nc(C2CC2)ccc1C(=O)N[C@H]1CCc2cc(-n3c(-c4cccnc4N)nc4ccc(-n5nccn5)nc43)ccc21 [Compound 539]
6.14 | 58.7 |  |  | Nc1ncccc1-c1nc2ccc(-n3cccn3)nc2n1-c1ccc2c(c1)CC[C@@H]2NC(=O)c1ccccc1F [Compound 333]
 |  | 31.9 | 1330 | Nc1ncccc1-c1nc2ccc(-n3cccn3)nc2n1-c1ccc2c(c1)CC[C@@H]2NC1CCN(C(=O)C2CC2)CC1F (stereo partly drawn) [Compound 446]
 |  | 117 | 2330 | CC(C)C(=O)N1CCC(N[C@@H]2c3ccc(-n4c(-c5cccnc5N)nc5ccc(-n6cccn6)nc54)cc3CC2F)CC1 (stereo partly drawn) [Compound 542]
